Assay [1] addresses T1, Protein kinase C zeta type (Homo sapiens) (UniProt Q05513).
T1 sequence (whole entry): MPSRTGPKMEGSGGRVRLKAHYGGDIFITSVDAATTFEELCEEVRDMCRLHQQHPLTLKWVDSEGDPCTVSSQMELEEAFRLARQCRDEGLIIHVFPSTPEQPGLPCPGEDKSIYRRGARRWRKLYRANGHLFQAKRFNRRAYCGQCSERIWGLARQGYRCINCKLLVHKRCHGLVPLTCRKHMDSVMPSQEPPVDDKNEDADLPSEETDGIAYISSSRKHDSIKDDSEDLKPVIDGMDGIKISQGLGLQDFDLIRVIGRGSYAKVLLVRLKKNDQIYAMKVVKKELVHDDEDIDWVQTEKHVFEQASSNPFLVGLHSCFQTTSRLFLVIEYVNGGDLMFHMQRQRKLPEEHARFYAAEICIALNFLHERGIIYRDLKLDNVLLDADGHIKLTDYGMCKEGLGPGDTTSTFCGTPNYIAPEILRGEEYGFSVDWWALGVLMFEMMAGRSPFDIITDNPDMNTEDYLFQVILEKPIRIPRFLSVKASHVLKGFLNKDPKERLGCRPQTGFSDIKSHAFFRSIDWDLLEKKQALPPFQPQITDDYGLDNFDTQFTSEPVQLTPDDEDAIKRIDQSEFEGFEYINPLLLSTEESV
The assay is described as follows: Inhibition of human PKCzeta assessed as residual activity at 1 uM relative to control.

For assay [2], the target named is Ephrin type-A receptor 2 (Homo sapiens) (UniProt P29317). In words: Inhibition of human EPHA2 assessed as residual activity at 1 uM relative to control.
The target in assay [3] is Homeodomain-interacting protein kinase 2 (Homo sapiens) (UniProt Q9H2X6). The assay is described as follows: Inhibition of human HIPK2 assessed as residual activity at 1 uM relative to control.
Homeodomain-interacting protein kinase 2 (Homo sapiens), sequence (Q9H2X6 whole entry, looked up): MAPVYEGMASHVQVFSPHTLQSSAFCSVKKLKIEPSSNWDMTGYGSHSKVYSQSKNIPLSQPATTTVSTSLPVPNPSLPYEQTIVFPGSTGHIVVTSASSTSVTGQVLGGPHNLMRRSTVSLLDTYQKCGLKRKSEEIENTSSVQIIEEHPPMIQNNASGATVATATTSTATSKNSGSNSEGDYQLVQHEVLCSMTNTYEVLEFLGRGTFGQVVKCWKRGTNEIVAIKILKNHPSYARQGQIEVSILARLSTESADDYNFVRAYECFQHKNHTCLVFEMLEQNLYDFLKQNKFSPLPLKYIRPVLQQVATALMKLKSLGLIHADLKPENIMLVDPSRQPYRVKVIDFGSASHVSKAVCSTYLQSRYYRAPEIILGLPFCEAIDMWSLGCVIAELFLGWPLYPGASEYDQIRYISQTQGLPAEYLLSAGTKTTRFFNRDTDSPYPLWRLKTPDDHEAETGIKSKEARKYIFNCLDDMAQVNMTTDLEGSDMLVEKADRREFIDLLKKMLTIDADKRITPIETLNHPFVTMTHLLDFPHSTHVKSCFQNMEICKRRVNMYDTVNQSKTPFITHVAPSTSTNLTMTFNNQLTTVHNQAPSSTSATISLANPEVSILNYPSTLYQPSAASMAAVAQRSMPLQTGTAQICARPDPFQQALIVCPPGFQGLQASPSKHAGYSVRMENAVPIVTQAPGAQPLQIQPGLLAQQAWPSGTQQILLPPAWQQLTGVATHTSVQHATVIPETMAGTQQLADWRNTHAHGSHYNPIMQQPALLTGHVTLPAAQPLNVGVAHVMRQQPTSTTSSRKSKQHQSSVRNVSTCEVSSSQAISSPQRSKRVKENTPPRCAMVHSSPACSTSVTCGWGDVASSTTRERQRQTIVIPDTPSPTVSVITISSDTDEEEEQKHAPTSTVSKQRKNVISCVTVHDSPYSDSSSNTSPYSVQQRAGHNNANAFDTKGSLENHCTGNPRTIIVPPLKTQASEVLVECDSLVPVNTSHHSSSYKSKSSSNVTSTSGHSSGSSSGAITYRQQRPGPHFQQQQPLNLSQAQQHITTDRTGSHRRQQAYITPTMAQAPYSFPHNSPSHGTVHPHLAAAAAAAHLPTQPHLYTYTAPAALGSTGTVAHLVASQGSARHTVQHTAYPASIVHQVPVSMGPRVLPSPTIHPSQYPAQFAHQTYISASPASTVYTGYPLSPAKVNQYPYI
The target of assay [4] is Tyrosine-protein kinase CSK (Homo sapiens) (UniProt P41240). The assay is described as follows: Inhibition of human CSK assessed as residual activity at 10 uM relative to control.
Tyrosine-protein kinase CSK (Homo sapiens), sequence (P41240 2-450 limits assumed): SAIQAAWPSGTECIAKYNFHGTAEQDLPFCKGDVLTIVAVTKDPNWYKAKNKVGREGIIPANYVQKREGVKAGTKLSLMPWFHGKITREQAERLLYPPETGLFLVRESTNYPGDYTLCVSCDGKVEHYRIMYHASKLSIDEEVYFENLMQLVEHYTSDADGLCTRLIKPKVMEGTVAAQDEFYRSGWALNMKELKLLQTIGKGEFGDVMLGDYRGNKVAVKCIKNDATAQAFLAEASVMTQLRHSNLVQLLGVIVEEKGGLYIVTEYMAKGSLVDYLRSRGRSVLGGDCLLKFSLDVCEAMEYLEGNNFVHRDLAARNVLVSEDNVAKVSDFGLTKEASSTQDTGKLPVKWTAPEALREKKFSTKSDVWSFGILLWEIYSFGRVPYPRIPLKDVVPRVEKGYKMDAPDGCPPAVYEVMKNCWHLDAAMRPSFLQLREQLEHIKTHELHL
The species named for a further assay is Rattus norvegicus. The assay is described as follows: Inhibition of rat AMPK assessed as residual activity at 1 uM relative to control.
Assay [5] concerns the target T2, Serine/threonine-protein kinase Sgk1 (Homo sapiens) (UniProt O00141).
T2 sequence (whole entry): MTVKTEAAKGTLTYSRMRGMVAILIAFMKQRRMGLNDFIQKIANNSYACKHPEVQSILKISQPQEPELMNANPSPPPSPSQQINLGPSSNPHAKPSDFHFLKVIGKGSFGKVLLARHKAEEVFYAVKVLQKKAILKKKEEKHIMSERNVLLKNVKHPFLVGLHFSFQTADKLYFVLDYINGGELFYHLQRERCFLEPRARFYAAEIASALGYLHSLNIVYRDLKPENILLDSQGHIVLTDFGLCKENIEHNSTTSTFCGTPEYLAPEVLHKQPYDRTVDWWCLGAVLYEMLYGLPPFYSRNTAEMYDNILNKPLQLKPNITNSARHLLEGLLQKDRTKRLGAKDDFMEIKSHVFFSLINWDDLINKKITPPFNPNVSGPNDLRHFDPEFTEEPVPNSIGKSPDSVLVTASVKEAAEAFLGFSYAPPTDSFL
In words: Inhibition of human SGK1 assessed as residual activity at 1 uM relative to control.

Assay [6] concerns the target Casein kinase II (Homo sapiens) (UniProt P67870+P68400+P19784). The assay is described as follows: Inhibition of human CK2 assessed as residual activity at 1 uM relative to control. The format is protein-complex assay.
Assay [7] deals with RAC-beta serine/threonine-protein kinase (Homo sapiens) (UniProt P31751). In words: Inhibition of human PKBbeta assessed as residual activity at 10 uM relative to control.
For assay [8], the target named is Tyrosine-protein kinase SYK (Homo sapiens) (UniProt P43405). In words: Inhibition of human SYK assessed as residual activity at 10 uM relative to control.
In assay [9] the target is Rho-associated protein kinase 2 (Rattus norvegicus) (UniProt Q62868). In words: Inhibition of rat ROCK2 assessed as residual activity at 1 uM relative to control.
In assay [10] the target is Insulin receptor-related protein (Homo sapiens) (UniProt P14616). The assay is described as follows: Inhibition of human IRR assessed as residual activity at 10 uM relative to control.
Insulin receptor-related protein (Homo sapiens), sequence (P14616 27-742 limits assumed): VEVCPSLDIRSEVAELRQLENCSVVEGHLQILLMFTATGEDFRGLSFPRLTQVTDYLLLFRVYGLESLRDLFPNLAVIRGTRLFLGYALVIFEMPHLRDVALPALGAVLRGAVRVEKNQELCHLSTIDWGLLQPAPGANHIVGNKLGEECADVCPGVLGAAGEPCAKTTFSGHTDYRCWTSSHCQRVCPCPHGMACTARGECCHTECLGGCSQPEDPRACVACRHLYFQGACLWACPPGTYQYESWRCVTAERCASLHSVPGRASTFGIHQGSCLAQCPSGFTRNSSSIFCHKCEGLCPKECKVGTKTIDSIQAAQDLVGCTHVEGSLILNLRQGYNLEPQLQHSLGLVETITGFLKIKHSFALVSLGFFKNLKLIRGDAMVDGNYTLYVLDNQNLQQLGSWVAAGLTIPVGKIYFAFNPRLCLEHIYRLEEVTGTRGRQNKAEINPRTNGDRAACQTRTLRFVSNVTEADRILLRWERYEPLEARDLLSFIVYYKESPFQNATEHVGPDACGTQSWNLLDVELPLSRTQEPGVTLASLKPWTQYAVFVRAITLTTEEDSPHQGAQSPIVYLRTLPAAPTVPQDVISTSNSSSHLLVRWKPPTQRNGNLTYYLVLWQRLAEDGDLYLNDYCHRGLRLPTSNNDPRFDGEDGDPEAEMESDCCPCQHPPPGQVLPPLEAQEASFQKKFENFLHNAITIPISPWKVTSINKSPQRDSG
Insulin receptor-related protein (Homo sapiens), sequence (P14616 747-1297 limits assumed): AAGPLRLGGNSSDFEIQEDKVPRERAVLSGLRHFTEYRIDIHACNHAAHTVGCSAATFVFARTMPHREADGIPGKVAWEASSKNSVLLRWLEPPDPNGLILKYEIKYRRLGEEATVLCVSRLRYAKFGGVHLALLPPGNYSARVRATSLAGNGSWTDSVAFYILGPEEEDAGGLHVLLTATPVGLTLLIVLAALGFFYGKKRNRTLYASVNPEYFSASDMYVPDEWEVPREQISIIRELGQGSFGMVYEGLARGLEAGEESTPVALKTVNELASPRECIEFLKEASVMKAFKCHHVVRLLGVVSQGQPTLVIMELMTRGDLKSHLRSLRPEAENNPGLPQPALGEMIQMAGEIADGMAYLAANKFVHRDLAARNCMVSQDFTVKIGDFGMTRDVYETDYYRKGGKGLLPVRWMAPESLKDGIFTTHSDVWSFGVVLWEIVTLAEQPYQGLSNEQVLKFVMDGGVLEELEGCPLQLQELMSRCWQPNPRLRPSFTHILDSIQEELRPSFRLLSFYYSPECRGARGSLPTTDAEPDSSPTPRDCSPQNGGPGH
For assay [11], the target named is Aurora kinase B (Homo sapiens) (UniProt Q96GD4). In words: Inhibition of human Aurora-B assessed as residual activity at 1 uM relative to control.
Aurora kinase B (Homo sapiens), sequence (Q96GD4 whole entry): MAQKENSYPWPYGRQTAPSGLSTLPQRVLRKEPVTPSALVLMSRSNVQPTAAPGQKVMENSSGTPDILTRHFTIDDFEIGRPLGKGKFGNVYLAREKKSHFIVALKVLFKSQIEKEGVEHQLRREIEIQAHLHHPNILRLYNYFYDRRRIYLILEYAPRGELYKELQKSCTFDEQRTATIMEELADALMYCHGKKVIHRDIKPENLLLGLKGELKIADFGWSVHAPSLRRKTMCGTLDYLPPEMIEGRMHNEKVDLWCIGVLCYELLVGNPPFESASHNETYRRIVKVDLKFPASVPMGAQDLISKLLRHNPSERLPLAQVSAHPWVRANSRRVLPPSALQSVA
For assay [12], the target named is Mitogen-activated protein kinase 8 (Homo sapiens) (UniProt P45983). In words: Inhibition of human JNK1 assessed as residual activity at 10 uM relative to control.
Mitogen-activated protein kinase 8 (Homo sapiens), sequence (P45983 whole entry): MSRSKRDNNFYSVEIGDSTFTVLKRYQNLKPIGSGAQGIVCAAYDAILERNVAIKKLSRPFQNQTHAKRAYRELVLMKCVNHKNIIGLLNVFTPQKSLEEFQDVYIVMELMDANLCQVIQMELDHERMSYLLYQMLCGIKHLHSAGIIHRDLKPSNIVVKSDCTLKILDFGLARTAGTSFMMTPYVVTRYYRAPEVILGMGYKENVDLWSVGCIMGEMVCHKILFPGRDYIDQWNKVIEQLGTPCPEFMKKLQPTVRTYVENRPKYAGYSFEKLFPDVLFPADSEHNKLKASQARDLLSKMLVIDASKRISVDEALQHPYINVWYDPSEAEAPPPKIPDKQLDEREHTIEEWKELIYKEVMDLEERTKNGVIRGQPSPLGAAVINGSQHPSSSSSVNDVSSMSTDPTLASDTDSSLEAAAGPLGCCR
Assay [13] concerns the target T3, Inhibitor of nuclear factor kappa-B kinase subunit beta (Homo sapiens) (UniProt O14920).
T3 sequence (whole entry): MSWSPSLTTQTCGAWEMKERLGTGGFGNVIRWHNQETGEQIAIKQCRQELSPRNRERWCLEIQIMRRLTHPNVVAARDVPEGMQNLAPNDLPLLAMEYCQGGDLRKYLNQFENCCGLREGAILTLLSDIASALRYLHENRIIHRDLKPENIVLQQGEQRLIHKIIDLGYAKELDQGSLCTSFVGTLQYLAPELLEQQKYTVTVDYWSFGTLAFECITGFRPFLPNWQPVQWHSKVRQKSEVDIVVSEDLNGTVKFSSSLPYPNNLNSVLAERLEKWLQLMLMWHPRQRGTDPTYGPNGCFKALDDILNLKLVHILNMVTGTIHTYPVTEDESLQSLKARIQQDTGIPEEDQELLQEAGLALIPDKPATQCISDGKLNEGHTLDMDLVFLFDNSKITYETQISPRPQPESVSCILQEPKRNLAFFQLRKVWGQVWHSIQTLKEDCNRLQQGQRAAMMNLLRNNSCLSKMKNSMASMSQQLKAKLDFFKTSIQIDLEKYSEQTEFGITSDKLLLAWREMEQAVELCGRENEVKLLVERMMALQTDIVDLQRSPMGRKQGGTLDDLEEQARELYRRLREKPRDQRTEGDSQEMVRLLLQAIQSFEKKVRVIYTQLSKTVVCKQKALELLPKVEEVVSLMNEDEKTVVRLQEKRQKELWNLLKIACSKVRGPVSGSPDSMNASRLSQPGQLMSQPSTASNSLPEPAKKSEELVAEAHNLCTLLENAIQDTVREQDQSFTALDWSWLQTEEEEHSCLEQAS
The assay is described as follows: Inhibition of human IKKbeta assessed as residual activity at 1 uM relative to control.

Assay [14] concerns the target Casein kinase I isoform delta (Rattus norvegicus) (UniProt Q06486). The assay is described as follows: Inhibition of rat CK1delta assessed as residual activity at 10 uM relative to control.
Assay [15] concerns the target Maternal embryonic leucine zipper kinase (Homo sapiens) (UniProt Q14680). The assay is described as follows: Inhibition of human MELK assessed as residual activity at 10 uM relative to control.
The target of assay [16] is Tyrosine-protein kinase BTK (Homo sapiens) (UniProt Q06187). The assay is described as follows: Inhibition of human BTK assessed as residual activity at 1 uM relative to control.
Assay [17] has as its target MAP/microtubule affinity-regulating kinase 3 (Homo sapiens) (UniProt P27448). The assay is described as follows: Inhibition of human MARK3 assessed as residual activity at 1 uM relative to control.

Maternal embryonic leucine zipper kinase (Homo sapiens), sequence (Q14680 whole entry, looked up): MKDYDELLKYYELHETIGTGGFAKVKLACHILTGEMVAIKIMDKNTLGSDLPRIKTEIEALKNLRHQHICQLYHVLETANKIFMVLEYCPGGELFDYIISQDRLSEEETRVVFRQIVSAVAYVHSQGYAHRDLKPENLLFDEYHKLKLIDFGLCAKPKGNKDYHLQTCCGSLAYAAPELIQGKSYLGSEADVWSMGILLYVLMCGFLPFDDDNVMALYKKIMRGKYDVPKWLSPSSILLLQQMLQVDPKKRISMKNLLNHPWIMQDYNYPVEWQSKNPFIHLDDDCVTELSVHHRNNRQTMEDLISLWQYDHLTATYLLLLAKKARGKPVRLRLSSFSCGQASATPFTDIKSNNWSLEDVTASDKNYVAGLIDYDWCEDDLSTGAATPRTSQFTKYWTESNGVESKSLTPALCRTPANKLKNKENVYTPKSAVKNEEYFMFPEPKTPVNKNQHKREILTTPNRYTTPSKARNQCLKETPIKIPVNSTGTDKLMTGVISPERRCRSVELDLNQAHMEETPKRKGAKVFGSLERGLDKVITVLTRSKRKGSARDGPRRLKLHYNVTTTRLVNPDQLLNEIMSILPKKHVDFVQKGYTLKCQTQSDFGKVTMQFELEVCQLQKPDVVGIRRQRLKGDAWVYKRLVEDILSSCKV
Casein kinase I isoform delta (Rattus norvegicus), sequence (Q06486 whole entry, looked up, canonical isoform): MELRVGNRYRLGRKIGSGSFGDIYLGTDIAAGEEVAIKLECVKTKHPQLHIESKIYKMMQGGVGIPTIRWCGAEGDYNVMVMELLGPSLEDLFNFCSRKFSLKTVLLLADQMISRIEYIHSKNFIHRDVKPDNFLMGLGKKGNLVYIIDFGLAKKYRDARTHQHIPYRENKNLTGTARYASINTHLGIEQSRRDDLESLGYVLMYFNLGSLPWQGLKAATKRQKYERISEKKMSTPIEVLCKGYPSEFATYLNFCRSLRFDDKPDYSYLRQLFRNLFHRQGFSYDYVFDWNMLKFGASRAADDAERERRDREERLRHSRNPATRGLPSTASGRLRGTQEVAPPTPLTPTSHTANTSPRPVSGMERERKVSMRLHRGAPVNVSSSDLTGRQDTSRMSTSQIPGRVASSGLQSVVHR

In the case of `CC(=O)Nc1cccc(-c2cnc3[nH]nc(C)c3c2)c1`, the Activity worked out at 120% in assay [1]; 101% in [2]; 72% in [3]; 48% in assay [4]; 74.3% in the assay filed under Rattus norvegicus; 105% in [5]. For the same molecule, the Activity was 102% in assay [6]; 94% in assay [7]; 55.9% in assay [8]; 93.9% in assay [9]; 48.8% in [10]; 77.2% in assay [11]. In addition, the Activity in assay [12] turned out to be 66.9%; in assay [13] it was 97%; in assay [14] it was 10%; in assay [15], 38.9%; in assay [16], 93.2%; in assay [17] it was 62.6%.

Take `CC(=O)Nc1nccc(-c2c(-c3ccccc3)noc2C)n1`: the Activity in [1] came out at 93.7%; in assay [2], 91.2%; in [3], 98.9%; in [4] it was 104%; in the assay filed under Rattus norvegicus, 82.8%; in assay [5], 57.5%. The Activity came to 79.3% in assay [6]; 84% in [7]; 98.7% in assay [8]; 95% in assay [9]; 81.4% in assay [10]; 93.5% in assay [11]. For the same molecule, the Activity was determined as 70.3% in assay [12]; 44.4% in [13]; 7.2% in [14]; 106% in [15]; 103% in [16]; 94.6% in [17].

`CCCC(=O)Nc1n[nH]c2ncc(-c3cccnc3)cc12`: the Activity worked out at 84% in assay [1]; 86% in assay [2]; 72% in [3]; 80% in [4]; 93% in the assay listed under Rattus norvegicus; 108% in [5]. The Activity was found to be 82% in assay [6]; 91% in [7]; 104% in assay [8]; 121% in assay [9]; 58% in [10]; 102% in assay [11]. The Activity was determined as 92% in assay [12]; 70% in assay [13]; 84% in assay [14]; 64% in [15]; 85% in assay [16]; 84% in assay [17].

Source of the values: ChEMBL document CHEMBL2429821, “A Casein kinase 1/Checkpoint kinase 1 pyrazolo-pyridine protein kinase inhibitor as novel activator of the p53 pathway” (Bioorg Med Chem Lett, 2013).
